# According to patent publication US7303740B2, “Methods for the diagnosis and treatment of breast cancer” (Albert Einstein College of Medicine of Yeshiva University, priority 2000, dated 2007):
# How the values were obtained:
# mgNIS [1] = target: T1, mgNIS (Mus musculus, UniProt Q99PN0); details: mice, 18th day of gestation, subcutaneous injection
# T1 sequence (Q99PN0 1-618): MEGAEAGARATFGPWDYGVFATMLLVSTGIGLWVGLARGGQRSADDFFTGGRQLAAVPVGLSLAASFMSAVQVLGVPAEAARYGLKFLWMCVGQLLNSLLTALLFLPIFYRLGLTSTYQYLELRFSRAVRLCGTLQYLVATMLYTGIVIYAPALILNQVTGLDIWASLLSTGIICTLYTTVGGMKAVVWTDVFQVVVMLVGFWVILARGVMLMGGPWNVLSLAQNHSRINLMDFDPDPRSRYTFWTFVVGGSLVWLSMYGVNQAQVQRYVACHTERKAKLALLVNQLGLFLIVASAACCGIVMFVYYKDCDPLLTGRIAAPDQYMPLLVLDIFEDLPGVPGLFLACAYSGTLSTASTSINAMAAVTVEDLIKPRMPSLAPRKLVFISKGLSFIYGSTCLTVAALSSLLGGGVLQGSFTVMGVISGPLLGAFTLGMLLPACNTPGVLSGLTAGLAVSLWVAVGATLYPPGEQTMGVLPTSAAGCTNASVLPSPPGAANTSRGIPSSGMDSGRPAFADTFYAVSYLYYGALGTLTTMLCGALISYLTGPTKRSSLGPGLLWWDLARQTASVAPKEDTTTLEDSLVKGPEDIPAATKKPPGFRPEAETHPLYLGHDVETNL
# Method: Animals at indicated days of gestation (3rd, 11th, or 18th) received a single dose of 1 μCi ^125I^− by subcutaneous injection in 100 μl of PBS. One hour later, MG were surgically removed, and radioactivity was quantified in a γ-counter (LKB 1282 Compugamma, Md.). Obtained values were standardized according to the weight of MG removed from each mouse, and were expressed as the ratio of radioiodide in MG tissue versus blood.
# mgNIS [2] = target: T1, mgNIS; assay: Ex vivo scintigraphic imaging of 99mTcO4- accumulation in organs of oxytocin-treated nubile mice; parameters: Membrane fractions isolated from MG of nubile female mice; from tissue; host or cells: CD1 (ICR) mice (intact, ovariectomized, gestating) and MMTV-ras / MMTV-neu transgenic mice: mammary gland, mammary adenocarcinoma, stomach; details: 2 mg perchlorate with tracer
# Method: FIG. 3. In vivo effect of oxytocin on functional expression of mgNIS in nubile mice. (A) Radioiodide transport in MG of oxytocin-treated nubile mice. Seven- to eight-week-old female mice were treated subcutaneously with phosphate buffered saline solution (PBS), 10 I.U. of prolactin (PRL), 1 I.U. of oxytocin (OXY), or prolactin and oxytocin (PRL+OXY) for three days. Then, 1 μCi of ^125I^− was injected intraperitoneally. […] (B) Immunoblot analysis of MG from hormonally-treated mice. […] Isolated membrane fractions were electrophoresed, electrotransferred onto nitrocellulose, and analyzed by immunoblots using anti-NIS Ab. […] Perchlorate-inhibited accumulation of ^99mTcO4^− was detected in stomach and MG of OXY-treated animals. (D) Quantification of ^99mTcO4^− accumulation in various organs from OXY- or PBS-treated mice. Tracer accumulation was monitored using image analysis software (ImageQuant, Macintosh). […] Counts were divided by the weight of the organs (cpm/mg tissue), and standardized by dividing them by cpm detected in the blood (cpm/mg blood) of each animal. ^99mTcO4^− accumulation in the organs from: PBS-treated animals (open bars); OXY-treated animals (dotted bars); and OXY-treated animals after ^99mTcO4^−+perchlorate injection (dark bars). […]
# mgNIS [3] = target: T1, mgNIS; type: in vivo, mice; parameters: Membrane fractions isolated from MG of nubile female mice; from tissue; host or cells: CD1 (ICR) mice (intact, ovariectomized, gestating) and MMTV-ras / MMTV-neu transgenic mice: mammary gland, mammary adenocarcinoma, stomach
# Method: Analysis of mammary adenocarcinomas in MMTV-ras and MMTV-neu transgenic mice. (A) Photograph of MMTV-ras transgenic mouse with a mammary adenocarcinoma. Transgenic mice were anaesthetized with intramuscular sodium pentobarbital injections. […] (E) Dynamic curves of percent injected dose per pixel were calculated by drawing regions of interest around tumoral tissue and the mediastinum, and dividing the counts per pixel (average counts) within each region of interest by the initial whole-body count value, thereby yielding a percent injected dose per pixel. (F) Immunoblot analysis of membrane fractions isolated from MMTV-ras tumor with anti-NIS Ab. (I) Immunoblot analysis of membrane fractions isolated from MMTV-neu tumors with anti-NIS Ab. In an MMTV-neu mouse with two adjacent mammary glands containing tumors, each tumor is indicated with an arrow and numbered. Lanes “tu1”, “tu2”, and “mg” correspond to proteins extracted from tumor 1, tumor 2, and contralateral normal mammary gland, respectively.
# To assess whether specific active I^− uptake (a result of mgNIS expression) occurred in the mammary tumoral cells, transgenic animals were imaged in vivo with either ^131I^− or ^99mTcO4^−. […] Quantification of the accumulation of the various tracers in the tumor, as a function of time, is also shown for the ras mouse.
# NIS = target: T2, NIS (Rattus norvegicus, UniProt Q63008); type: in vivo
# T2 construct: from tissue; host or cells: living female rats (nubile and lactating): thyroid, stomach, lactating mammary gland
# T2 sequence (Q63008 1-618): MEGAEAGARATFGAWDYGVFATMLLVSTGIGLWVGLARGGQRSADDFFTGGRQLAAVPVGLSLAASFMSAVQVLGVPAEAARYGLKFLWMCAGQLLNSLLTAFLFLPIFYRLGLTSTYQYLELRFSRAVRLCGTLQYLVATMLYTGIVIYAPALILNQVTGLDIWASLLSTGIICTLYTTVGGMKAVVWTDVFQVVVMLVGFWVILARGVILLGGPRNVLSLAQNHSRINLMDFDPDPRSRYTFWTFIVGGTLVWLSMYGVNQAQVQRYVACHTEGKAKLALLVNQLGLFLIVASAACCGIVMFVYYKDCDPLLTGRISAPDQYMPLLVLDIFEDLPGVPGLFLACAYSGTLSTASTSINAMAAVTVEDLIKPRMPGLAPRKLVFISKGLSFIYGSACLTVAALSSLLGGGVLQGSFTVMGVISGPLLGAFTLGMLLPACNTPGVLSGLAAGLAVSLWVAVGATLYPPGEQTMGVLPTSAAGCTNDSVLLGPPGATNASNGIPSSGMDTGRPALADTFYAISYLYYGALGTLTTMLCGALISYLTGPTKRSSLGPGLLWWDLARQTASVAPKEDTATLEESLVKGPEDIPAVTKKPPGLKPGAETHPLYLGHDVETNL
# Method: FIG. 1. Characterization of I^− accumulation and NIS expression in rat lactating MG and stomach. (A)-(C) In vivo scintigraphic imaging of ^99mTcO4^− injected adult female rats. (A) Radiotracer (1.5 mCi) was injected into the tail vein of nubile animals, and pin-hole images of the body were obtained at 30 min post-injection. (B) Lactating rats were imaged 5 min after ^99mTcO4^− injection. (C) To ascertain inhibition of ^99mTcO4^− uptake, ^99mTcO4^− and 20 mg perchlorate were co-injected into the tail vein, followed by static imaging at 5 min. (D) Immunoblot analysis. Membrane fractions isolated from rat tissues were electrophoresed, electrotransferred onto nitrocellulose, and immunoblotted with affinity-purified anti-NIS antibody (Ab) and horseradish peroxidase (HRP) linked anti-rabbit IgG (Amersham-Pharmacia, Piscataway, N.J.). Approximately 40 μg of membrane fractions were incubated (either with or without N-glycosidase F) overnight at 37° C., followed by SDS polyacrylamide gel electrophoresis and Western blot analysis. Lanes 1 and 2: thyroid; lanes 4 and 5: lactating MG; lanes 7 and 8: stomach; lane 10: non-lactating MG; lane 11: muscle; and lane 12: lung. […]
# mgNIS [4] = target: T3, mgNIS (Homo sapiens, UniProt Q92911); assay: 99mTc-pertechnetate scintigraphy of a person with locally-advanced breast cancer; type: in vivo; details: whole-body scan, invasive ductal carcinoma
# T3 construct: from tissue; host or cells: person with locally-advanced invasive ductal carcinoma of the breast (whole-body scan)
# T3 sequence (Q92911 1-643): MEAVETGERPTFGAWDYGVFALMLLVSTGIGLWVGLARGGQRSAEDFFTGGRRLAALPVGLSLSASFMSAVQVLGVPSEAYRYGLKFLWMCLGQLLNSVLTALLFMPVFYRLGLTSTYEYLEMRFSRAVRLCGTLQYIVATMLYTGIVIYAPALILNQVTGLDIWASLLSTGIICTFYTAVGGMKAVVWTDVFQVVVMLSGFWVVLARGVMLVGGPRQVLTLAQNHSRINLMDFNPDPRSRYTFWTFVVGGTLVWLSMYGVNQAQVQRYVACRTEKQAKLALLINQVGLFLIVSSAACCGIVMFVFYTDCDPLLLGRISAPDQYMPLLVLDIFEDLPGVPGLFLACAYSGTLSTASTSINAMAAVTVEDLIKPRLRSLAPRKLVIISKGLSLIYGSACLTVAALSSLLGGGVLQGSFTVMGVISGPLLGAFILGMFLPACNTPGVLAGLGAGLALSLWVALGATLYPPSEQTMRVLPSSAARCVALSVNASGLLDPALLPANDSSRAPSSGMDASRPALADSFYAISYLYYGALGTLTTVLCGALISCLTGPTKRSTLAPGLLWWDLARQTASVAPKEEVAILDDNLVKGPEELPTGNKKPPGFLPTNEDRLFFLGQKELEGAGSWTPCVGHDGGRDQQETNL
# Description: FIG. 7. ^99mTc-pertechnetate scintigraphy of a person with a locally-advanced cancer of the right breast and an enlarged thyroid. The patient was scanned after injection of 15 mCi of ^99mTc-labeled pertechnetate (^99mTcO4^−). Tracer accumulates in the thyroid and stomach. Tracer is present in the heart and liver due to vascular pooling. The arrow indicates distinct accumulation in the area of the breast cancer.
# The results obtained from the studies on transgenic mice, and the similarity between the human breast cancer immunohistochemical patterns and those observed in thyroid cancer, indicate the likelihood that mgNIS expressed in human breast tumors is active. Clearly, the most direct way to determine the activity of mgNIS in breast cancer is to subject patients to scintigraphic evaluation with ^99mTcO4^−. One patient who was undergoing neoadjuvant hormonal therapy for locally-advanced breast cancer presented initially with an enlarged thyroid. Accordingly, they underwent whole-body ^99mTcO4^− scanning.
# [5] = lactating rats, single intraperitoneal injection
compound,measurement,setting,value
"[125IH] [^125I^−, radioiodide]",125I- concentration in lactating MG,lactating rat,concentrated in lactating MG
same,125I- concentration in milk with respect to blood,[5],> 60 fold
same,time of saturation of 125I- accumulation in milk,[5],~2 h
same,125I- concentration in skeletal muscle or non-lactating MG,"rat, in vivo",not concentrated
same,accumulation of radioiodide in MG compared with blood concentration,mgNIS [1],15 fold
[O-][Cl+3]([O-])([O-])O [perchlorate],effect on 99mTcO4- accumulation in organs,mgNIS [2],inhibited
same,effect on 99mTcO4- accumulation in tumor and stomach,mgNIS [3]; co-injected with the isotope,prevented
same,"effect on 99mTcO4- concentration in thyroid, stomach, and lactating MG","NIS; lactating rat, 20 mg perchlorate co-injected, imaging at 5 min",effectively prevented
"[O]=[99Tc](=[O])(=[O])[O-] [^99mTcO4^−, ^99mTc-pertechnetate]",tracer distribution in patient with breast tumor,mgNIS [4],concentrated in the area of this patient's breast tumor
same,tracer accumulation in mammary tumor,"mgNIS [3]; MMTV-ras and MMTV-neu mice, tail vein injection",accumulated in the stomach and tumor
same,time to concentration of 99mTcO4- in all pairs of MGs,"NIS; lactating rats, tail vein injection",≤ 5 min
